Molecular target: T1, IRAK4 (Homo sapiens, UniProt Q9NWZ3)
T1 construct: His (N); TEV cleavage site (N)
T1 sequence (Q9NWZ3 1-460): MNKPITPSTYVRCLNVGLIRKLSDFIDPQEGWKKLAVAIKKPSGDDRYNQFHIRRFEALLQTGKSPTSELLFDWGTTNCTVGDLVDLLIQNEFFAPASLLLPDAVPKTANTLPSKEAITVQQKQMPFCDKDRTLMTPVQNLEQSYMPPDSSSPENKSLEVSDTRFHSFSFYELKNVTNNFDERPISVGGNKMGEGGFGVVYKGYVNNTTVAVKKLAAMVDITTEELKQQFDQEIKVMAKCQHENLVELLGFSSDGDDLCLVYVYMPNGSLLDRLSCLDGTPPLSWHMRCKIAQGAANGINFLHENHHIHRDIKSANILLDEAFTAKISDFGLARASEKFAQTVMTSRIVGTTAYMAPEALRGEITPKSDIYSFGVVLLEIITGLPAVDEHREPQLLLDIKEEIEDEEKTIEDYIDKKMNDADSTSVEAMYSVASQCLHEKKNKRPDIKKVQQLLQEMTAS
Assay: IRAK4 Enzymatic Assay
Assay type: biochemical
Details: His-TEV-IRAK4 20 ng/well, ATP 2 μM, STK1-biotin peptide 300 nM, 3 hours at 30° C., FlashPlate radioactivity
Outline: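 Recombinant His-TEV-tagged IRAK4 (20 ng/well) phosphorylates biotinylated STK1 peptide (300 nM) with 2 μM ATP plus [^33P]ATP, 3 h at 30 °C in pH 7.0 HEPES buffer with MgCl2 and MnCl2; compounds tested 20 μM to 1 nM. Reaction stopped with EDTA; incorporated radioactivity counted on streptavidin FlashPlates.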

`Cc1cc(-c2cccc(-c3ncc(-c4cnn(C5CCOCC5)c4)cn3)c2)cnn1` [Example 138, 3-Methyl-5-(3-{5-[1-(tetrahydro-pyran-4-yl)-1H-pyrazol-4-yl]-pyrimidin-2-yl}-phenyl)-pyridazine] and `Cc1cc(-c2cccc(-c3ncc(-c4cnn(C5CCOCC5)c4)cn3)c2)ccn1` [Example 139, 2-[3-(2-Methyl-pyridin-4-yl)-phenyl]-5-[1-(tetrahydro-pyran-4-yl)-1H-pyrazol-4-yl]-pyrimidine] fall in the same range of IC50: 100 to 1000 nM for the first, 100 to 1000 nM for the second.

`Cn1cc(-c2cccc(-c3ncc(-c4cn(C5CCOCC5)nc4C(=O)O)cn3)c2)cn1` [Example 140, 4-{2-[3-(1-Methyl-1H-pyrazol-4-yl)-phenyl]-pyrimidin-5-yl}-1-(tetrahydro-pyran-4-yl)-1H-pyrazole-3-carboxylic acid] and `Cn1cc(-c2cccc(-c3ncc(-c4cn(C5CCOCC5)nc4C(=O)NCCO)cn3)c2)cn1` [Example 154, 4-{2-[3-(1-Methyl-1H-pyrazol-4-yl)-phenyl]-pyrimidin-5-yl}-1-(tetrahydro-pyran-4-yl)-1H-pyrazole-3-carboxylic acid (2-hydroxy-ethyl)-amide] fall in the same range of IC50: 1000 to 5000 nM for the first, 1000 to 5000 nM for the second.

`Cn1cc(-c2cccc(-c3ncc(-c4cnn(C5COC5)c4)cn3)c2)cn1` [Example 141, 2-[3-(1-Methyl-1H-pyrazol-4-yl)-phenyl]-5-(1-oxetan-3-yl-1H-pyrazol-4-yl)-pyrimidine] and `Cn1cc(-c2cccc(-c3ncc(-c4cnn([C@H]5CC[C@@H](N)CC5)c4)cn3)c2)cn1` [Example 156, 4-(4-{2-[3-(1-Methyl-1H-pyrazol-4-yl)-phenyl]-pyrimidin-5-yl}-pyrazol-1-yl)-cyclohexylamine] fall in the same range of IC50: 100 to 1000 nM for the first, 100 to 1000 nM for the second.

`CN1[C@@H]2CCC[C@H]1C[C@H](n1cc(-c3cnc(-c4cccc(-c5cnn(C)c5)c4)nc3)cn1)C2` [Example 142, Exo-9-Methyl-3-(4-{2-[3-(1-methyl-1H-pyrazol-4-yl)-phenyl]-pyrimidin-5-yl}-pyrazol-1-yl)-9-aza-bicyclo[3.3.1]nonane] and `CNC(=O)C1CC(n2cc(-c3cnc(-c4cccc(-c5cnn(C)c5)c4)nc3)cn2)C1` (centres unmarked) [Example 157, 3-(4-{2-[3-(1-Methyl-1H-pyrazol-4-yl)-phenyl]-pyrimidin-5-yl}-pyrazol-1-yl)-cyclobutanecarboxylic acid methylamide] fall in the same range of IC50: 100 to 1000 nM for the first, 100 to 1000 nM for the second.

`CNC(=O)[C@H]1CC[C@H](n2cc(-c3cnc(-c4cccc(-c5cnn(C)c5)c4)nc3)cn2)CC1` [Example 143, Trans-4-(4-{2-[3-(1-Methyl-1H-pyrazol-4-yl)-phenyl]-pyrimidin-5-yl}-pyrazol-1-yl)-cyclohexanecarboxylic acid methylamide] and `Cn1cc(-c2cccc(-c3ncc(-c4cnn([C@H]5CC[C@H](C(=O)NC6CC6)CC5)c4)cn3)c2)cn1` [Example 170, Trans-4-(4-{2-[3-(1-Methyl-1H-pyrazol-4-yl)-phenyl]-pyrimidin-5-yl}-pyrazol-1-yl)-cyclohexanecarboxylic acid cyclopropylamide] cannot be ordered by IC50: less than 100 nM for the first, less than 100 nM for the second.

`CNC(=O)c1nn(C)cc1-c1cnc(-c2cccc(-c3cnn(C)c3)c2)nc1` [Example 144, 1-Methyl-4-{2-[3-(1-methyl-1H-pyrazol-4-yl)-phenyl]-pyrimidin-5-yl}-1H-pyrazole-3-carboxylic acid methylamide] and `Cn1cc(-c2cccc(-c3ncc(-c4cn(C)nc4CO)cn3)c2)cn1` [Example 155, (1-Methyl-4-{2-[3-(1-methyl-1H-pyrazol-4-yl)-phenyl]-pyrimidin-5-yl}-1H-pyrazol-3-yl)-methanol] fall in the same range of IC50: 1000 to 5000 nM for the first, 1000 to 5000 nM for the second.

`CN(C(=O)Cn1cc(-c2cnc(-c3cccc(-c4cnn(C)c4)c3)nc2)cn1)C1COC1` [Example 145, N-Methyl-2-(4-{2-[3-(1-methyl-1H-pyrazol-4-yl)-phenyl]-pyrimidin-5-yl}-pyrazol-1-yl)-N-oxetan-3-yl-acetamide] and `CC1COCCN1C(=O)Cn1cc(-c2cnc(-c3cccc(-c4cnn(C)c4)c3)nc2)cn1` (centres unmarked) [Example 147, 1-(3-Methyl-morpholin-4-yl)-2-(4-{2-[3-(1-methyl-1H-pyrazol-4-yl)-phenyl]-pyrimidin-5-yl}-pyrazol-1-yl)-ethanone] fall in the same range of IC50: 100 to 1000 nM for the first, 100 to 1000 nM for the second.

First: CN(C)C(=O)C(C)(C)n1cc(-c2cnc(-c3cccc(-c4cnn(C)c4)c3)nc2)cn1 [Example 149, N,N-Dimethyl-2-(4-{2-[3-(1-methyl-1H-pyrazol-4-yl)-phenyl]-pyrimidin-5-yl}-pyrazol-1-yl)-isobutyramide]
Second: Cn1cc(-c2cccc(-c3ncc(-c4cnn(C(C)(C)C(=O)N5CCOCC5)c4)cn3)c2)cn1 [Example 150, 2-Methyl-2-(4-{2-[3-(1-methyl-1H-pyrazol-4-yl)-phenyl]-pyrimidin-5-yl}-pyrazol-1-yl)-1-morpholin-4-yl-propan-1-one]
The IC50 of the first is lower: 100 to 1000 nM for the first, 1000 to 5000 nM for the second. The first is the more potent here.

Compared with `OCc1cc(-c2cccc(-c3ncc(-c4cnn(C5CCOCC5)c4)cn3)c2)ccn1` [Example 151, [4-(3-{5-[1-(Tetrahydro-pyran-4-yl)-1H-pyrazol-4-yl]-pyrimidin-2-yl}-phenyl)-pyridin-2-yl]-methanol], `Cn1cc(-c2cccc(-c3ncc(-c4cn(C5CCOCC5)nc4C(=O)N4CC(O)C4)cn3)c2)cn1` [Example 153, (3-Hydroxy-azetidin-1-yl)-[4-{2-[3-(1-methyl-1H-pyrazol-4-yl)-phenyl]-pyrimidin-5-yl}-1-(tetrahydro-pyran-4-yl)-1H-pyrazol-3-yl]-methanone] is higher in IC50: 100 to 1000 nM for the first, 1000 to 5000 nM for the second.

`COCCN(C)C(=O)[C@H]1CC[C@H](n2cc(-c3cnc(-c4cccc(-c5cnn(C)c5)c4)nc3)cn2)CC1` [Example 152, Trans-4-(4-{2-[3-(1-Methyl-1H-pyrazol-4-yl)-phenyl]-pyrimidin-5-yl}-pyrazol-1-yl)-cyclohexanecarboxylic acid (2-methoxy-ethyl)-methyl-amide] and `COCCNC(=O)[C@H]1CC[C@H](n2cc(-c3cnc(-c4cccc(-c5cnn(C)c5)c4)nc3)cn2)CC1` [Example 159, Trans-4-(4-{2-[3-(1-Methyl-1H-pyrazol-4-yl)-phenyl]-pyrimidin-5-yl}-pyrazol-1-yl)-cyclohexanecarboxylic acid (2-methoxy-ethyl)-amide] cannot be ordered by IC50: less than 100 nM for the first, less than 100 nM for the second.

First: CN(C)C(=O)C1CC(n2cc(-c3cnc(-c4cccc(-c5cnn(C)c5)c4)nc3)cn2)C1 (centres unmarked) [Example 158, 3-(4-{2-[3-(1-Methyl-1H-pyrazol-4-yl)-phenyl]-pyrimidin-5-yl}-pyrazol-1-yl)-cyclobutanecarboxylic acid dimethylamide]
Second: CC(=O)N[C@H]1CC[C@@H](n2cc(-c3cnc(-c4cccc(-c5cnn(C)c5)c4)nc3)cn2)CC1 [Example 161, Cis-N-[4-(4-{2-[3-(1-Methyl-1H-pyrazol-4-yl)-phenyl]-pyrimidin-5-yl}-pyrazol-1-yl)-cyclohexyl]-acetamide]
The IC50 of the first is higher: 100 to 1000 nM for the first, less than 100 nM for the second. The second is the more potent here.

`CN1CCN(C(=O)[C@H]2CC[C@H](n3cc(-c4cnc(-c5cccc(-c6cnn(C)c6)c5)nc4)cn3)CC2)CC1` [Example 160, Trans-(4-Methyl-piperazin-1-yl)-[4-(4-{2-[3-(1-methyl-1H-pyrazol-4-yl)-phenyl]-pyrimidin-5-yl}-pyrazol-1-yl)-cyclohexyl]-methanone] and `Cn1cc(-c2cccc(-c3ncc(-c4cnn([C@H]5CC[C@H](C(=O)N6CCOCC6)CC5)c4)cn3)c2)cn1` [Example 162, Trans-[4-(4-{2-[3-(1-Methyl-1H-pyrazol-4-yl)-phenyl]-pyrimidin-5-yl}-pyrazol-1-yl)-cyclohexyl]-morpholin-4-yl-methanone] cannot be ordered by IC50: less than 100 nM for the first, less than 100 nM for the second.

`CC(C)[C@H](CO)NC(=O)[C@H]1CC[C@H](n2cc(-c3cnc(-c4cccc(-c5cnn(C)c5)c4)nc3)cn2)CC1` [Example 163, Trans-4-(4-{2-[3-(1-Methyl-1H-pyrazol-4-yl)-phenyl]-pyrimidin-5-yl}-pyrazol-1-yl)-cyclohexanecarboxylic acid ((R)-1-hydroxymethyl-2-methyl-propyl)-amide] and `COCCC(=O)N[C@H]1CC[C@@H](n2cc(-c3cnc(-c4cccc(-c5cnn(C)c5)c4)nc3)cn2)CC1` [Example 166, Cis-3-Methoxy-N-[4-(4-{2-[3-(1-methyl-1H-pyrazol-4-yl)-phenyl]-pyrimidin-5-yl}-pyrazol-1-yl)-cyclohexyl]-propionamide] fall in the same range of IC50: 100 to 1000 nM for the first, 100 to 1000 nM for the second.

First: Cn1cc(-c2cccc(-c3ncc(-c4cnn(C5CCN([C@H]6CCOC[C@H]6F)CC5)c4)cn3)c2)cn1 [Example 167, 5-{1-[1-((3S,4S)-3-Fluoro-tetrahydro-pyran-4-yl)-piperidin-4-yl]-1H-pyrazol-4-yl}-2-[3-(1-methyl-1H-pyrazol-4-yl)-phenyl]-pyrimidine]
Second: CO[C@@H]1CCN(C(=O)[C@H]2CC[C@H](n3cc(-c4cnc(-c5cccc(-c6cnn(C)c6)c5)nc4)cn3)CC2)C1 [Example 168, ((R)-3-Methoxy-pyrrolidin-1-yl)-trans-[4-(4-{2-[3-(1-methyl-1H-pyrazol-4-yl)-phenyl]-pyrimidin-5-yl}-pyrazol-1-yl)-cyclohexyl]-methanone]
The IC50 of the first is higher: 100 to 1000 nM for the first, less than 100 nM for the second.

`CNC(=O)C(CCO)n1cc(-c2cnc(-c3cccc(-c4cnn(C)c4)c3)nc2)cn1` (centres unmarked) [Example 169, 4-Hydroxy-N-methyl-2-(4-{2-[3-(1-methyl-1H-pyrazol-4-yl)-phenyl]-pyrimidin-5-yl}-pyrazol-1-yl)-butyramide] was tested, and the IC50 was 1000 to 5000 nM.

Reference: patent US9216991B2 (Ares Trading S.A., priority 2012, dated 2015)
